Columns and labels:
[1] = Kinetic study in dogs (effect of salt or crystal form on blood kinetics); format: in vivo; details: 6 mg/3 mL/kg expressed in terms of levodopa
Procedure: (2) Kinetic Study in Dogs (Effect of Salt or Crystal Form on Blood Kinetics)
In general, it is considered that when the salt or crystal form is different, a difference in solubility thereof or the like affects blood kinetics and sometimes causes a difference in potency of efficacy.
The collection of a plasma sample was carried out according to the previous section (1). However, the dose was set to 6 mg/3 mL/kg.
The preparation of an analytical sample and analysis were carried out according to the previous section (1).
In the above Table 6, a change over time in the concentration (μg/mL) of levodopa observed in the plasma when the compound of the present invention produced in Example 6, the compound of the present invention produced in Example 9, or the compound of the present invention produced in Example 10 was orally administered to dogs is shown. The numeral expressed with ± in the parenthesis represents a standard deviation.

[2] = test system: rat model injected with 6-hydroxydopamine into the medial forebrain bundle; test: Rotation test in model injected with 6-hydroxydopamine into medial forebrain bundle; format: in vivo, rats (male Crl:CD(SD)IGS); details: 6-OHDA rats
Source text: In the experiment, male Crl:CD(SD)IGS rats (Charles River Japan, Inc.) supplied at 5 weeks of age were used. The rats were housed in Econ cages (4 or less rats per cage) and were raised by giving free access to solid feed CRF-1 (Oriental Yeast Co., Ltd.) and tap water (in a water bottle) until they were subjected to the experiment. When acclimation after shipping was completed, each of the Crl:CD(SD)IGS rats at 6 weeks of age was anesthetized with pentobarbital sodium (Somnopentyl (registered trademark) injectable solution, 35 mg/kg, intraperitoneal injection). Subsequently, for the purpose of preventing damage to norepinephrine neurons by 6-hydroxydopamine (6-OHDA), desipramine (25 mg/kg) was intraperitoneally injected, and the rat was held and fixed by a brain fixation device. A small bone window was opened with a hand drill at a desired site, and 6-OHDA was injected into the medial forebrain bundle according to the brain atlas of Paxinos and Watson using a 30 G cannula (Brain Science Idea. Co. Ltd.) with a needle tip cut at an angle of 45° (site of injection: A=−4.5 mm, L=+1.2 mm, and V=−7.8 mm with respect to the bregma, injection amount: 8 μg/4 μL/8 min/site in each case). […] Thereafter, the burr hole was closed with an instant glue, and then sutured and disinfected with iodine tincture. […] In a rotation test, a device configured such that a black plastic circular cylinder having a diameter of 30 cm and a height of 35 cm was placed upright in a black-painted bowl having an opening diameter of 35 cm and a bottom diameter of 17 cm was used (the height of the curve from the bottom of the bowl to the bottom edge of the cylinder was set to 7 cm). The rat was placed in the device (one rat per device) and acclimated to the device for 30 minutes. Thereafter, a test substance was administered to the rat, and the rat was returned to the same device and videotaped. […] As for the number of rotations, a 360° rotation in one direction was determined to be one rotation. In the case where the direction (body's direction of movement or movement direction) was changed during rotation, the rotation was not included in the count. […] Incidentally, in each case, benserazide which is a dopa decarboxylase inhibitor (8 mg/kg) was orally administered concomitantly. […] In addition, the respective values are each a mean of the values obtained using 11 rats in each group and its standard error.

[3] = in vivo; cited from earlier work
[4] = Kinetic study in dogs (oral administration, plasma levodopa)
Source text: The relationship between the blood concentration of levodopa and side effects in patients who take levodopa has been gradually elucidated. […] In order to reduce the number of doses of levodopa and avoid side effects such as dyskinesia and wearing-off in patients who take levodopa, it is necessary to maintain the blood concentration of levodopa within a therapeutic range as long as possible.
These levodopa prodrugs are prodrugs containing an ester bond, and therefore, it is considered that among a number of enzymes, carboxyesterase plays the most important role in the process of producing levodopa by metabolizing the compound after the compound is administered in vivo. Therefore, as an animal species to be used for performing a kinetic study, dogs in which the organ distribution of carboxyesterase is most similar to that of humans were selected as subjects for evaluation.
The thus obtained drug solution was administered by gavage through a gastric tube into the stomach of dogs (male beagle dogs) which were fasted from the day before the administration. At 15 and 30 minutes, and 1, 2, 4, 6, and 8 hours after administration of the drug solution, 1 mL of blood was collected from a cephalic vein with a heparinized syringe. Immediately after the collection, the collected blood was centrifuged in a desktop centrifuge at 14500 rpm for 45 seconds. Then, acetonitrile containing 0.1125% formic acid was added to the thus obtained plasma in an amount as twice as large as the volume of the plasma, followed by stirring, and then, the resulting sample was stored at −20° C. until measurement.
The sample was thawed on the measurement day, followed by stirring and centrifugation at 13000 rpm for 3 minutes (at 4° C.). The resulting supernatant was filtered and the filtrate was analyzed by LC/MS/MS. The analysis was performed by LC/MS/MS under the following conditions.
Measurement Apparatus: API-5000 (manufactured by Applied Biosystems, Inc.)
Analytical column: CAPCELL PAK CR (1:4) (4.6 mm, I.D.×250 mm, 5 μm)
Analytical column temperature: 40° C.
Mobile phase: A: 5 mM ammonium formate (pH 3.9), B: acetonitrile (A/B=17/3)
Detection (levodopa): m/z (precursor): 196.19, m/z (product): 134.99
DP (Declustering Potential): −60
CE (Collision Energy): −25
CXP (Collision Cell Exit Potential): −17
Incidentally, the numerical value in the column which indicates the dose expressed in terms of levodopa refers to a dose equivalent to that of levodopa.

[5] = test system: p53R2; test: Mutagenicity assay using mammalian cells (NESMAGET method); format: cell-based; details: for Mutagenicity assay (NESMAGET) Concentration at which mutagenicity was determined to be positive: concentration at which relative luciferase activity of p53R2 exceeded 200% (vehicle control 0.3% dimethylsulfoxide = 100%); for determination of mutagenicity: positive = relative luciferase activity of p53R2 exceeded 200%, compound of the present invention up to 200 μg/mL
Procedure: In the treatment of Parkinson's disease and/or Parkinson's syndrome, there is a possibility that a levodopa prodrug is continued to be taken over a long period of time of several years to several decades. Therefore, an evaluation was carried out as to whether or not the compound of the present invention has mutagenicity by a mutagenicity assay using mammalian cells.
A mutagenicity assay using mammalian cells was carried out as a commissioning test to be undertaken by Nissin Foods Holdings Co., Ltd. The present method also called NESMAGET method is a method in which the expression of p53R2 which is a DNA repair gene is detected by luciferase activity, and the specific experimental technique is described in JP-A-2005-000024 and Japanese Patent No. 4243716. In the determination as to whether or not the result of this test was positive, the luciferase activity of p53R2 in the case of a vehicle control (0.3% dimethylsulfoxide) was taken as 100%, and a concentration at which a relative luciferase activity exceeded 200% was determined to be “concentration at which mutagenicity was determined to be positive”.

[6] = male, beagle, dog, in vivo, po, 3 mg/kg

SMILES	Absorption through oral administration [1]	Cmax/C6 hr (ratio of maximum plasma concentration and plasma concentration at 6 hours after oral administration, levodopa) [4, 6]	AUC (area under the blood concentration-time curve of levodopa) ([4]; dog, in vivo, po, 3 mg/kg)	Mutagenicity assay (NESMAGET) Concentration at which mutagenicity was determined to be positive [5]	determination of mutagenicity [5]	further results
CC(C)(OC(=O)c1ccccc1)C(=O)Oc1ccc(C[C@H](N)C(=O)O)cc1OC(=O)C(C)(C)OC(=O)c1ccccc1.Cc1ccc(S(=O)(=O)O)cc1 [Example 6, (2S)-2-amino-3-(3,4-bis((2-(benzoyloxy)-2-methylpropanoyl)oxy)phenyl)propanoic acid tosylate]	can be absorbed through oral administration					
CC(C)(OC(=O)c1ccccc1)C(=O)Oc1ccc(C[C@H](N)C(=O)O)cc1OC(=O)C(C)(C)OC(=O)c1ccccc1 [Example 9, (2S)-2-amino-3-(3,4-bis((2-(benzoyloxy)-2-methylpropanoyl)oxy)phenyl)propanoic acid]	can be absorbed through oral administration					rotational behavior compared with the compound produced in Example 5 ([2]; used in place of Example 5): the same results were obtained
CC(C)(OC(=O)c1ccccc1)C(=O)Oc1ccc(C[C@H](N)C(=O)O)cc1OC(=O)C(C)(C)OC(=O)c1ccccc1 [Example 10, (2S)-2-amino-3-(3,4-bis((2-(benzoyloxy)-2-methylpropanoyl)oxy)phenyl)propanoic acid]	can be absorbed through oral administration					
N[C@@H](Cc1ccc(O)c(O)c1)C(=O)O [Levodopa, L-3,4-dihydroxyphenylalanine]		913.8				percentage of the absorbed levodopa distributed in the central nervous system [3]: less than 1%; share of the absorbed levodopa metabolized by aromatic L-amino acid decarboxylase (AADC) in organs other than the central nervous system [3]: ≥ 95%; AUC (area under the blood concentration-time curve of levodopa) ([4]; levodopa in plasma, fasted male beagle dogs, oral gavage, dose 3 mg/kg expressed in terms of levodopa): 0.96 μg^+ hr/mL; AUC ([4]; male, beagle, dog, plasma, po, 3 mg/kg): 960 ng·h/mL; time after administration at which the number of rotations reached a maximum value ([2]; oral, levodopa 30 mg/kg or Example 5 100 mg/kg expressed in terms of levodopa, benserazide 8 mg/kg): 20 min; maximum value of the number of rotations per 10 minutes ([2]; oral, levodopa 30 mg/kg or Example 5 100 mg/kg expressed in terms of levodopa, benserazide 8 mg/kg concomitantly, N=11): about 100 times
CC(C)(COC(=O)c1ccsc1)C(=O)Oc1ccc(C[C@H](N)C(=O)O)cc1OC(=O)C(C)(C)COC(=O)c1ccsc1.Cl [Reference Example 11, (2S)-2-Amino-3-(3,4-bis((2,2-dimethyl-3-((thiophene-3-carbonyl)oxy)propanoyl)oxy)phenyl)propanoic acid hydrochloride]		23.9	0.52 μg^+ hr/mL	1.4 µg/mL	positive for mutagenicity	
COc1ccccc1C(=O)OCC(C)(C)C(=O)Oc1ccc(C[C@H](N)C(=O)O)cc1OC(=O)C(C)(C)COC(=O)c1ccccc1OC.Cl [Reference Example 16]		7.4	0.22 μg^+ hr/mL	84 µg/mL	positive for mutagenicity	
CC(C)(COC(=O)c1ccccc1)C(=O)Oc1ccc(C[C@H](N)C(=O)O)cc1OC(=O)C(C)(C)COC(=O)c1ccccc1.Cl [Reference Example 40, (S)-2-Amino-3-(3,4-bis((3-(benzoyloxy)-2,2-dimethylpropanoyl)oxy)phenyl)propanoic acid hydrochloride]		4.3	0.81 μg^+ hr/mL	16 µg/mL	positive for mutagenicity	
